9 compounds from publication PMC12621043, “Un-LOK-ing a New Approach for Conformational Selective Targeting of STK10 (LOK)” (ACS Medicinal Chemistry Letters, 2025) can be followed below.

Holding throughout (test): DSF Tm panel
What all share (type): binding
Settings in all cases: 10 μM compound

Experiment [1] has as its target T1, MARK4A (Homo sapiens, UniProt Q96L34).
T1 construct: purchased in-house DSF kinase panel (SGC-style construct names; the trailing letter is the construct ID)

Experiment [2] has as its target SLK (Homo sapiens, UniProt Q9H2G2). The arrangement: purchased in-house DSF kinase panel (SGC-style construct names; the trailing letter is the construct ID).
The target of experiment [3] is T2, MAPK10A (Homo sapiens, UniProt P53779).
T2 construct: purchased in-house DSF kinase panel (SGC-style construct names; the trailing letter is the construct ID)

Experiment [4] addresses T3, CSNK1DA (Homo sapiens, UniProt P48730).
T3 construct: purchased in-house DSF kinase panel (SGC-style construct names; the trailing letter is the construct ID)
T3 sequence (P48730 1-294): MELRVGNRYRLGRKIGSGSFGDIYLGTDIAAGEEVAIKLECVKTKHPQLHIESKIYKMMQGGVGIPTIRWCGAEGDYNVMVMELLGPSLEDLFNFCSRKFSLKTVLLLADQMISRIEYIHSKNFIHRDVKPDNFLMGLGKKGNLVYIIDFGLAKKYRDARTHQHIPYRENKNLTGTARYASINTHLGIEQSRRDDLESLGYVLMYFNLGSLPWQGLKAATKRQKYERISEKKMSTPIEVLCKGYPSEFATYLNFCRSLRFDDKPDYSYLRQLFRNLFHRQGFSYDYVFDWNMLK

For experiment [5], the target named is T4, STK3 (STK3A) (Homo sapiens, UniProt Q13188).
T4 construct: purchased in-house DSF kinase panel (SGC-style construct names; the trailing letter is the construct ID)
T4 sequence (Q13188 16-313): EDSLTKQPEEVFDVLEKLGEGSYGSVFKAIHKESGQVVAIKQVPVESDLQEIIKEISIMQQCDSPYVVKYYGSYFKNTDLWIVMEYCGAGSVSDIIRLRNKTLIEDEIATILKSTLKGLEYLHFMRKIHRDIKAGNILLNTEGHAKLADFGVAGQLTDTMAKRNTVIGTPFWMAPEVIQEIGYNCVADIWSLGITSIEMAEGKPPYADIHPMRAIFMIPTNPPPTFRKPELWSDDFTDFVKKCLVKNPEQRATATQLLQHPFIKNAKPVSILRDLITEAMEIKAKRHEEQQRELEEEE

Experiment [6] concerns the target T5, BMP2KA (Homo sapiens, UniProt Q9NSY1).
T5 construct: purchased in-house DSF kinase panel (SGC-style construct names; the trailing letter is the construct ID)

Experiment [7] addresses T6, FESA (Homo sapiens, UniProt P07332).
T6 construct: purchased in-house DSF kinase panel (SGC-style construct names; the trailing letter is the construct ID)

Experiment [8] deals with T7, MAPK14A (Homo sapiens, UniProt Q16539).
T7 construct: purchased in-house DSF kinase panel (SGC-style construct names; the trailing letter is the construct ID)

Experiment [9] concerns CDC42BPAA.
Experiment [10] deals with T8, GSG2A (Homo sapiens, UniProt Q8TF76).
T8 construct: purchased in-house DSF kinase panel (SGC-style construct names; the trailing letter is the construct ID)
T8 sequence (Q8TF76 465-798): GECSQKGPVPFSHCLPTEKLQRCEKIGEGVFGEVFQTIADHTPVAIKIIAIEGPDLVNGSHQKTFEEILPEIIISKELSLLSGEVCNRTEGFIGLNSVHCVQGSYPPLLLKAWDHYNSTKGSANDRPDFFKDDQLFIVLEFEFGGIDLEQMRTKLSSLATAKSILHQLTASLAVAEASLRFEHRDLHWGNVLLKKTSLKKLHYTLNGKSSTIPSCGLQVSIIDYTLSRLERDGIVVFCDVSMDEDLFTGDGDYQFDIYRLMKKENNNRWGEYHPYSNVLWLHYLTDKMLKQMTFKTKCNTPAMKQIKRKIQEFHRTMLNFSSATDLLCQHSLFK

Experiment [11] concerns the target T9, EPHB3A (Homo sapiens, UniProt P54753).
T9 construct: purchased in-house DSF kinase panel (SGC-style construct names; the trailing letter is the construct ID)
T9 sequence (P54753 34-998): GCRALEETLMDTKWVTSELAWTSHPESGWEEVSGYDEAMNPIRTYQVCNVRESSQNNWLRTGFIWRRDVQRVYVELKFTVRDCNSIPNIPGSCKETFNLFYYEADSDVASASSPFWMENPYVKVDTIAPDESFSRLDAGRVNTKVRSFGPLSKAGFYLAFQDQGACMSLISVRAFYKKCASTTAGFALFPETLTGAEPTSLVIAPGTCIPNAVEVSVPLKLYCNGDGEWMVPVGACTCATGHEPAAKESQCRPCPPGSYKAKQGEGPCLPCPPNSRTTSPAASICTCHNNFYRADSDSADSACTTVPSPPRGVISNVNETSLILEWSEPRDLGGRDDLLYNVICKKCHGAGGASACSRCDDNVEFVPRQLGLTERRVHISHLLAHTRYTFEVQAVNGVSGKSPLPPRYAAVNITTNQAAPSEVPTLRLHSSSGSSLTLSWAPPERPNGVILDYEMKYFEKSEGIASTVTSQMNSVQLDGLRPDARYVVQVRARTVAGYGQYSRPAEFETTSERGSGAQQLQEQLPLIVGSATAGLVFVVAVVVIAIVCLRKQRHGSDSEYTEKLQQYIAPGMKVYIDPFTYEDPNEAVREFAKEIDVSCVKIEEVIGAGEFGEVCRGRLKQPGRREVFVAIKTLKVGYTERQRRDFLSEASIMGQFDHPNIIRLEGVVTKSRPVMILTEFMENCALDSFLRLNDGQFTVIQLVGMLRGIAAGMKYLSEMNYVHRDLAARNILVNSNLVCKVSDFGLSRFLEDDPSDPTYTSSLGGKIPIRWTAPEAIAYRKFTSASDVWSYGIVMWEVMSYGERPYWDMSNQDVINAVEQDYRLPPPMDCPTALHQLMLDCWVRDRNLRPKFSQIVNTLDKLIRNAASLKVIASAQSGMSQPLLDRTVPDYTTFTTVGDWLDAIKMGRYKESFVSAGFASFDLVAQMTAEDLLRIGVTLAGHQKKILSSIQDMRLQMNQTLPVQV

In experiment [12] the target is T10, EPHA2 (EPHA2A) (Homo sapiens, UniProt P29317).
T10 construct: purchased in-house DSF kinase panel (SGC-style construct names; the trailing letter is the construct ID)
T10 sequence (P29317 596-900): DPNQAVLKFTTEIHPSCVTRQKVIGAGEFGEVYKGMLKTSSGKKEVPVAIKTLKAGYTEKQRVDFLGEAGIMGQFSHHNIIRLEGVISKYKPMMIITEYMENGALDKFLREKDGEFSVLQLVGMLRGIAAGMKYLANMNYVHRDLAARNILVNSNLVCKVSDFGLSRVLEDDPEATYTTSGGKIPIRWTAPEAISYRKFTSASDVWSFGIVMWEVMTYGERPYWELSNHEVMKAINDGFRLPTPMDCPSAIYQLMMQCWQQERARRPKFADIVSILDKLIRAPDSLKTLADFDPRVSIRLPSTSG

In experiment [13] the target is T11, CAMK2DA (Homo sapiens, UniProt Q13557).
T11 construct: purchased in-house DSF kinase panel (SGC-style construct names; the trailing letter is the construct ID)

SMILES strings stand for the structures.

T1 sequence (Q96L34 59-310): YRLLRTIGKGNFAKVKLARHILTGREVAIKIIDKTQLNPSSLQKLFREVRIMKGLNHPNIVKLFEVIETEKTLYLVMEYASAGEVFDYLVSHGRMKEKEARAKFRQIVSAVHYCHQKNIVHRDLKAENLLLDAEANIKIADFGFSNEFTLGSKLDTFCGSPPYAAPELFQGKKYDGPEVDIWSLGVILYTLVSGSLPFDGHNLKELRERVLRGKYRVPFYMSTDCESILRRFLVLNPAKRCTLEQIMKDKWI
T5 sequence (Q9NSY1 38-345): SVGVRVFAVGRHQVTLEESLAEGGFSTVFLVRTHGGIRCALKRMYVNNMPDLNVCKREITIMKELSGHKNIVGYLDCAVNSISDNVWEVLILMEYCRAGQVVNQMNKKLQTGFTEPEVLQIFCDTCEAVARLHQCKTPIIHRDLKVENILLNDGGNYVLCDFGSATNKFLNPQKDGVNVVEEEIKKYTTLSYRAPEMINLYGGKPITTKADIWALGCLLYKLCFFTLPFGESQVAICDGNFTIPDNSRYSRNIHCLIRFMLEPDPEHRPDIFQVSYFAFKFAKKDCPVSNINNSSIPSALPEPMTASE
T6 sequence (P07332 whole entry): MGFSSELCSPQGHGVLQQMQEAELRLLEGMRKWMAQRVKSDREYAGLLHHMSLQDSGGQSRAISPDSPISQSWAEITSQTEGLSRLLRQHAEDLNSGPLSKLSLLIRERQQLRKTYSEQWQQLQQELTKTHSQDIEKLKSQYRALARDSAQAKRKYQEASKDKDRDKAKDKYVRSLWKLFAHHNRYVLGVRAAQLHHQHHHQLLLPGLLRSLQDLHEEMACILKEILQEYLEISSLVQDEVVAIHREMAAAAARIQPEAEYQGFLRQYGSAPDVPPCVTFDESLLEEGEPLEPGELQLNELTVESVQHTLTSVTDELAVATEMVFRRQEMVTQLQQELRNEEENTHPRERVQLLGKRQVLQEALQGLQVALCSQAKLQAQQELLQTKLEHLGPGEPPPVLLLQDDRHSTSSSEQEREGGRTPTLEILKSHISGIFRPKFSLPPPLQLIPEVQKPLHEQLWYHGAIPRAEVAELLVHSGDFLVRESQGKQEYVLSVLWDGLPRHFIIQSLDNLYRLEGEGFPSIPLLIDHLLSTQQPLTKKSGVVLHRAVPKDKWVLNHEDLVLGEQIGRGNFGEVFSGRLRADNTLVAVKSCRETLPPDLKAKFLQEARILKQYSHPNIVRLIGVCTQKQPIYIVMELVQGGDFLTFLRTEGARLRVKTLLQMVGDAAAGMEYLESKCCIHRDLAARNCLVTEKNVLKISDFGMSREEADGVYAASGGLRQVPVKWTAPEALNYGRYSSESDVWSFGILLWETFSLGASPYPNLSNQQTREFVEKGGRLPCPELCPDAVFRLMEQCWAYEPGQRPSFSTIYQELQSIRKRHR
T7 sequence (Q16539 whole entry): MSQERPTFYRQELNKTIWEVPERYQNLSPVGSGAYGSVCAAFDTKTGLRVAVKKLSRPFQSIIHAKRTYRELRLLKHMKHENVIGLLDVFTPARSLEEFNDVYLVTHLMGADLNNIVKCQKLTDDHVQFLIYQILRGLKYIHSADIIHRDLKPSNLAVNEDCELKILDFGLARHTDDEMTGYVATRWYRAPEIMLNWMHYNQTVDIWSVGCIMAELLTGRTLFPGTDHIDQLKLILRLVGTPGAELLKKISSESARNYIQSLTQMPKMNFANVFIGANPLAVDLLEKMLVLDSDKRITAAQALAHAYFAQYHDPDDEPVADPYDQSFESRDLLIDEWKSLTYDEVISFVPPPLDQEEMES
T11 sequence (Q13557 11-309): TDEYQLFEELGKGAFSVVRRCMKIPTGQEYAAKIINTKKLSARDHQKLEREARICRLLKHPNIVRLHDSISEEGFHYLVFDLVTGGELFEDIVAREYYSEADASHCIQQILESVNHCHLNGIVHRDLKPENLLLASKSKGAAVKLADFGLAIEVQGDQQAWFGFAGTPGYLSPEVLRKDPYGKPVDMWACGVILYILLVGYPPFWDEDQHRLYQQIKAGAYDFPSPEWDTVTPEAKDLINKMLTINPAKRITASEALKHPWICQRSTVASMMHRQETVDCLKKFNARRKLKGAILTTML
T2 sequence (P53779 39-402): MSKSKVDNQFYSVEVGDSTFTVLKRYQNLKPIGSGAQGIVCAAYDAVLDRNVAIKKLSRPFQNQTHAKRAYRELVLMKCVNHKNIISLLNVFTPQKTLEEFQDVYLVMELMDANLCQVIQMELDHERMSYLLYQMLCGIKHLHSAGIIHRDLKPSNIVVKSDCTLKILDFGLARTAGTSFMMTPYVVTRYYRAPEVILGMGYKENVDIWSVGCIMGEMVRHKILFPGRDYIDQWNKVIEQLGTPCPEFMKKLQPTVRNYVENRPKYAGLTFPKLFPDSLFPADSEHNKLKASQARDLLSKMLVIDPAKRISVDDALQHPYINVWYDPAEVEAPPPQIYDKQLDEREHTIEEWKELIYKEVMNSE

On to `Cc1ccc(F)cc1CNC(=O)Nc1ccc2cc1OCCOCCNc1ccn3ncc-2c3n1` [compound 26], for which the ΔTm at 10 µM in experiment [1] is 1.9 °C; in experiment [2], 3.2 °C; in [3], 0.5 °C; in experiment [4], -0.1 °C; in experiment [5], 4.1 °C; in [6], 9.1 °C. For the same compound, the thermal shift (ΔTm) at 10 µM is 0.3 °C in experiment [7]; 2.7 °C in experiment [8]; 0.6 °C in experiment [10]; 0.9 °C in experiment [11]; 0.3 °C in experiment [12]; 2.4 °C in [13]. In addition, the “ΔTm CDC42BPAA” value in [9] was 0,2 °C.
With `O=C(NCc1ccccc1C(F)(F)F)Nc1ccc2cc1OCCOCCNc1ccn3ncc-2c3n1` [compound 27], the thermal shift (ΔTm) at 10 µM in experiment [1] is 2.7 °C; in experiment [2], 4.2 °C; in [3] it was 0.7 °C; in experiment [4], -0.5 °C; in [5] it was 4.7 °C; in [6], 7.2 °C. Besides, the ΔTm at 10 µM was found to be 0.7 °C in [7]; 2.6 °C in experiment [8]; 0.7 °C in experiment [10]; 1.4 °C in experiment [11]; 0.2 °C in [12]; 2.5 °C in experiment [13]. The “ΔTm CDC42BPAA” value in [9] is 1,0 °C.
Consider `O=C(NCc1ccc(C(F)(F)F)cc1)Nc1ccc2cc1OCCOCCNc1ccn3ncc-2c3n1` [compound 28], for which the thermal shift (ΔTm) at 10 µM in experiment [1] was 2.7 °C; in experiment [2] it was 3.1 °C; in experiment [3] it was 1.1 °C; in experiment [4], -0.5 °C; in experiment [5], 5.1 °C; in [6], 7.7 °C. In addition, the ΔTm at 10 µM came to 1 °C in [7]; 3.1 °C in [8]; 0.9 °C in experiment [10]; 1.4 °C in experiment [11]; 0.1 °C in [12]; 2.7 °C in experiment [13]. Besides, the “ΔTm CDC42BPAA” value in [9] is 0,9 °C.
`COc1ccccc1CNC(=O)Nc1ccc2cc1OCCOCCNc1ccn3ncc-2c3n1` [compound 29]: the ΔTm at 10 µM in experiment [1] stood at 1.9 °C; in [2], 2.5 °C; in experiment [3], 0.3 °C; in [4], 0.2 °C; in experiment [5] it was 3.4 °C; in experiment [6], 8.3 °C. For the same compound, the ΔTm at 10 µM in experiment [7] turned out to be 2 °C; in experiment [8], 0.9 °C; in experiment [10] it was 0.6 °C; in experiment [11] it was 0.4 °C; in experiment [12], 0.4 °C; in [13], 2.1 °C. The “ΔTm CDC42BPAA” value in [9] was 0,3 °C.
Turning to `COc1cccc(CNC(=O)Nc2ccc3cc2OCCOCCNc2ccn4ncc-3c4n2)c1` [compound 30], the ΔTm at 10 µM stood at 1.5 °C in experiment [1]; 2.1 °C in experiment [2]; 0.5 °C in [3]; 0.2 °C in [4]; 3.7 °C in [5]; 9.8 °C in experiment [6]. In addition, the shift in melting temperature (ΔTm) at 10 µM is 1.4 °C in experiment [7]; 0.9 °C in experiment [8]; 0.7 °C in [10]; 0.3 °C in [11]; 0.4 °C in experiment [12]; 2.3 °C in experiment [13]. Besides, in [9], the “ΔTm CDC42BPAA” value is 0,2 °C.
For the compound `COc1ccc(CNC(=O)Nc2ccc3cc2OCCOCCNc2ccn4ncc-3c4n2)cc1F` [compound 32], the thermal shift (ΔTm) at 10 µM in [1] was 2.5 °C; in experiment [2] it was 3.6 °C; in [3], 0.8 °C; in experiment [4], -0.2 °C; in experiment [5], 4.7 °C; in [6], 10.9 °C. For the same compound, the ΔTm at 10 µM came to 0.8 °C in experiment [7]; 2.4 °C in experiment [8]; 1 °C in [10]; 0.6 °C in experiment [11]; 0.3 °C in experiment [12]; 2.7 °C in experiment [13]. In experiment [9], the “ΔTm CDC42BPAA” value is 0,1 °C.
Take `COc1cc(CNC(=O)Nc2ccc3cc2OCCOCCNc2ccn4ncc-3c4n2)ccc1F` [compound 33]: the ΔTm at 10 µM amounted to 2.2 °C in experiment [1]; 2.4 °C in experiment [2]; 0.7 °C in experiment [3]; 0.1 °C in [4]; 3.9 °C in experiment [5]; 10.2 °C in [6]. Moreover, the ΔTm at 10 µM in [7] came out at 0.5 °C; in [8], 1.4 °C; in [10] it was 2.8 °C; in experiment [11], 0.8 °C; in [12], 0.5 °C; in experiment [13], 2.4 °C. Also, the “ΔTm CDC42BPAA” value in experiment [9] is 0,1 °C.
Turning to `C[C@H](NC(=O)Nc1ccc2cc1OCCOCCNc1ccn3ncc-2c3n1)c1ccccc1` [compound 34], the ΔTm at 10 µM in experiment [1] is 0.9 °C; in experiment [2], 1.6 °C; in [3], 0.1 °C; in experiment [4], -0.1 °C; in experiment [5] it was 3.6 °C; in experiment [6] it was 9.1 °C. The ΔTm at 10 µM in experiment [7] is 1.3 °C; in experiment [8], 1.3 °C; in [10], 0.1 °C; in [11] it was 0.5 °C; in experiment [12], 0.3 °C; in [13], 2.2 °C. Further, the “ΔTm CDC42BPAA” value in experiment [9] was 0,1 °C.
Turning to `CN1CCN(C(=O)Nc2ccc3cc2OCCOCCNc2ccn4ncc-3c4n2)CC1` [compound 35], the thermal shift (ΔTm) at 10 µM was 0.8 °C in experiment [1]; 3.3 °C in [2]; -0.7 °C in [3]; 0.5 °C in experiment [4]; 3.3 °C in experiment [5]; 11.8 °C in experiment [6]. The ΔTm at 10 µM in [7] is -0.2 °C; in [8], -0.3 °C; in [10], 1.3 °C; in experiment [11] it was 0.6 °C; in experiment [12], 0.6 °C; in experiment [13] it was 0.5 °C. For the same compound, the “ΔTm CDC42BPAA” value in experiment [9] was -0,6 °C.
